Paper PMC11547840, “The Intestinal Barrier Protective Effect of Indole Aldehyde Derivatives on Acute Toxoplasma gondii Infection” (Molecules, 2024)
“Also recorded” adds a separate entry of the source. Like-named read-outs stand apart in the source and are kept apart here.

Experiments:
[1] = test system: IEC-6 cells; assay: MTT cytotoxicity assay in IEC-6 cells; format: cell-based; conditions: Rattus norvegicus, read-out: IC50 in IEC-6 Cells
Description: (§1) Anti-T. gondii activity and cytotoxicity of indole derivatives in vitro were evaluated by MTT assay (Solarbio, Beijing, China) using a slightly modified version of the procedure of Shang et al.. IEC-6 cells were seeded onto the 96-well plates (2 × 10^3/well) for 24 h to obtain the full monolayer, and then the host cells were infected with T. gondii (parasite: cell = 3:1) in complete medium. After 24 h, cells were washed to remove any extra parasites and then incubated with different concentrations (20, 200, 500 and 1000 μm) of […]. […] After 24 h of treatment, MTT solution was added directly to the culture wells and then incubated for 4 h at 37 °C. The optical absorbance was measured at a wavelength of 548 nm using a microplate reader (SpectraMax M2, Molecular Devices, Sunnyvale, CA, USA). Giemsa staining was used to observe the changes in cell morphology and the proliferation of T. gondii-infected cells. IEC-6 (1 × 10^5 cells/well) was inoculated into 24-well plates containing round coverslip, and after the cells were attached to the wall, T. gondii (3 × 10^5 cells/well) was added to infect the cells for 3 h. After the culture medium was discarded, PBS was added to remove the uninvaded tachyzoites. […] After discarding the supernatant, the cells were washed with PBS and completely aspirated, and then fixed by adding 0.5 mL of methanol for 3 min. Giemsa staining solution was added and shaken slightly to make the staining uniform. Coverslips were rinsed with distilled water to replace the staining solution, and finally, the slices were sealed with neutral gum and air-dried.

[2] = test system: T. gondii; assay: Giemsa staining: cell infection rate and intracellular tachyzoites in IEC-6 cells; format: cell-based, Toxoplasma gondii; conditions: IEC-6 cells infected 3 h, drug 12 h at the IC50 value of the cells; for cell infection rate: Toxo group 49.2%; for number of intracellular tachyzoites: Toxo group 254
Description: as §1

[3] = test system: IEC-6 cells with T. gondii infection; assay: NO level of T. gondii-infected IEC-6 cells (Griess); format: cell-based; conditions: Griess method, cell supernatant; compared with Toxo group
Description: (§2) The Greiss method was used to determine the NO content in small intestine tissues and cells. The above small intestine tissue homogenate or IEC-6 cell supernatant was centrifuged at 4 °C and 1500 rpm for 15 min, and the absorbance was measured at 540 nm by adding equal amounts of Griess A and B reagents to the supernatant. The standard used in the NO standard curve was sodium nitrite, and the NO content in the samples was calculated by substituting the absorbance values of the samples into the regression equation of the standard curve.

[4] = test system: small intestine of mice with T. gondii infection; assay: Small intestine and serum biochemical parameters (GSH, MDA, NO, DAO) of T. gondii-infected mice; format: in vivo; conditions: 100 mg/kg oral once a day for 6 days
Source text: (§3) For the in vivo study, KM female mice were divided into groups consisting of six animals each and then intraperitoneally injected with 2 × 10^3 tachyzoites. […] On the last day, heart blood samples were collected after anesthesia to separate the serum, and after mice were sacrificed by cervical dislocation, mice were dissected to obtain organs and tissues. The tachyzoites were harvested from mice peritoneal cavities to determine the level of tachyzoite proliferation. The peritoneal fluid was collected twice; the first time, it was centrifuged at 500 rpm for 10 min, then the supernatant was centrifuged at 2500 rpm for 20 min, discarded, and the worm precipitate was collected at the bottom, and mixed with an appropriate amount of physiological saline. A total of 10 μL of T. gondii suspension was mixed with 10 μL of 4% Trypan blue staining solution in a 1.5 mL centrifuge tube.
The GSH was measured according to the method in [58]. The intestine homogenate was mixed with half volume trichloroacetic acid (20%, w/v) and centrifuged at 4000 rpm for 10 min. Then, phosphate buffer (phosphate 0.3 mol/L, pH 7.5) and 5,5-dithio-bis-(2-nitrobenzoic acid) (0.04%, w/v) were added to the separated supernatant and mixed thoroughly. After 5 min at room temperature, the absorbance was measured at 412 nm.
MDA was measured by the standard method with minor modifications. The small intestine homogenate supernatant was mixed with thiobarbituric acid (0.5%, w/v) and heated in boiling water bath for 1 h, then cooled quickly and centrifuged at 6000 rpm for 10 min; the absorbance of pink colored supernatant was measured at 532 nm. Tetraethoxypropane replaced the intestine homogenate in the standard sample.
as §2
The DAO evaluation experimental method of Xin Y et al. was adopted, in which mouse heart blood was taken from a 1.5 mL centrifuge tube and centrifuged at 4 °C and 3000× g for 10 min, and the upper layer of serum was taken for measurement. Another 1.5 mL tube was taken and 600 μL of phosphate buffer, 20 μL of horseradish peroxidase, 20 μL of dianisidine dihydrochloride hydrochloride, and 20 μL of 1,5-pentanediamine hydrochloride were added. After that, 100 μL of serum samples to be tested was added, mixed well and heated at 37 °C for 18 h. The absorbance was measured at 436 nm. […]. A total of 100 μL of distilled water was used in the blank tube instead of serum, and the standard used in the standard curve was diamine oxidase. The absorbance value of the experimental samples was substituted into the regression equation of the standard curve to calculate the content of DAO in the serum samples.

[5] = Small intestine histology and pathology scoring of T. gondii-infected mice; format: in vivo; conditions: 100 mg/kg oral once a day for 6 days
Source text: as §3
The histology research includes apparent pathological change score, H&E staining and histopathological scores of tissue, as shown in Table 4 and Table 5. In detail, the obtained small intestine tissues were fixed in formalin solution and embedded in paraffin wax after gradual dehydration with different concentrations of ethanol. The paraffin fast was sectioned to a thickness of 5 μm, rehydrated and stained with hematoxylin and eosin, respectively, and finally permeabilized with xylene and sealed with neutral gum. A light microscope was used to observe and collect pictures, and the degree of damage to the small intestinal tissues was assessed according to Chiu’s six-grade scale.

[6] = test system: T. gondii; assay: In vivo anti-T. gondii activity, peritoneal tachyzoite count by Trypan Blue; design: species or system Toxoplasma gondii; conditions: 100 mg/kg oral once a day for 6 days; for Number of Tachyzoites: peritoneal cavity of KM female mice, i.p. 2 × 10^3 tachyzoites, Toxo 12.28 ± 0.39; for Inhibition Rate: mice peritoneal T. gondii, (untreated group − treated group)/untreated group × 100%
Source text: as §3

[7] = test system: T. gondii; assay: MTT anti-T. gondii activity in T. gondii-infected IEC-6 cells; format: cell-based, Toxoplasma gondii; conditions: for Selective Index (SI): IC50 in IEC-6 cells/IC50 in T. gondii-infected IEC-6 cells; for IC50: Toxoplasma gondii, read-out: IC50 in T. gondii
Description: as §1

[8] = MTT, concentration required to reduce IEC-6 cell growth by 50%, 24 h treatment
[9] = MTT, concentration required to reduce T. gondii-infected IEC-6 cell growth by 50%, 24 h treatment

| Compound | IC50 [1, 8] [µM] | cell infection rate [2] [%] | NO level of IEC-6 cells with T. gondii infection [3] | DAO level in serum [4] | MDA level in small intestine tissue [4] | NO level in small intestine tissue [4] | intestinal barrier damage induced by T. gondii infection (histology, H&E) [5] | Number of Tachyzoites [6] | Selective Index (SI) [7] | IC50 [7, 9] [µM] | IC50 ([1]; IEC-6, 24 h) [µM] | IC50 ([7]; IEC-6, 24 h) [µM] | number of intracellular tachyzoites [2] | GSH level in small intestine tissue [4] | apparent pathological damage score (intestine apparent pathology scoring) [5] | Inhibition Rate [6] [%] | MDA level in small intestine tissue ([4]; 100 mg/kg) | NO level in small intestine tissue ([4]; 100 mg/kg) |
| --- | --- | --- | --- | --- | --- | --- | --- | --- | --- | --- | --- | --- | --- | --- | --- | --- | --- | --- |
| N#CCc1cn(C=O)c2ccccc12 [A1, 1-Formyl-1H-indole-3-acetonitrile] | 417 | 26.0 | significantly decreased the release of intracellular nitric oxide | mitigate the elevated levels | surpassed that of the positive control drug, Spy | mitigate the elevated levels | demonstrate potential in ameliorating intestinal barrier damage | 8.17 ± 0.84 ×10^6 | 1.2 | 342 |  |  |  |  |  |  |  |  |
| NCCc1cn(C=O)c2ccccc12 [A2, 1-Formyl-1H-indole-3-ethanamine] |  |  |  |  |  |  |  |  |  |  | > 1000 | > 1000 |  |  |  |  |  |  |
| O=Cc1c[nH]c2ccccc12 [A3, Indole-3-carboxaldehyde] | 869.2 ± 4 | 15.0 | lowest NO release levels; also recorded: significantly decreased the release of intracellular nitric oxide | more significant | effective inhibition of the MDA increase | less pronounced compared to the other derivatives | most effective, surpassing the control drug Spy in efficacy | 8.22 ± 1.49 ×10^6 | 1.3 | 675 ± 8.3 |  |  | more effective than Spy | significantly higher than that observed with the positive control drug, Spy | significantly lower apparent pathological damage score compared to Spy | 33.3 |  |  |
| O=Cc1c[nH]c2ncc(Br)cc12 [A4, 5-bromo-1H-pyrrolo[2,3-b] pyridine-3-carbaldehyde] | 960.3 ± 2.5 |  |  |  |  |  |  |  | 1.0 | 995.7 ± 4.9 |  |  |  |  |  |  |  |  |
| O=Cc1c(Cl)[nH]c2ccccc12 [A5, 2-Chloro-1H-indole-3-carbaldehyde] | 602 ± 9.9 | 20.3 | significantly decreased the release of intracellular nitric oxide | mitigate the elevated levels | effective inhibition of the MDA increase | mitigate the elevated levels | demonstrate potential in ameliorating intestinal barrier damage | 9.56 ± 0.92 ×10^6 | 1.1 | 564 ± 6.9 |  |  | more effective than Spy |  |  | 22.2 |  |  |
| COC(=O)c1cn(C=O)c2ccccc12 [A6, 1-formyl-1H-indole-3-carboxylic acid methyl ester] |  |  |  |  |  |  |  |  | 0.9 |  | 633 ± 9.8 | 742 ± 10.5 |  |  |  |  |  |  |
| Clc1cc2ccccc2[nH]1 [A7, 2-Chloro-1H-indole] | 283.7 ± 2.6 |  |  |  |  |  |  |  | 1.0 | 287 ± 6.1 |  |  |  |  |  |  |  |  |
| Cn1cc(C=O)c2ccccc21 [A8, 1-Methyl-indole-3-carbaldehyde] | 650 ± 7.9 | 20.5 | significantly decreased the release of intracellular nitric oxide | mitigate the elevated levels |  |  | demonstrate potential in ameliorating intestinal barrier damage | 8.92 ± 0.51 ×10^6 | 1.1 | 571 ± 7.4 |  |  | more effective than Spy |  |  |  | effective inhibition of the MDA increase; also recorded: slightly outperformed A9 | mitigate the elevated levels; also recorded: slightly outperformed A9 |
| c1ccc2[nH]ccc2c1 [Indole, indole] |  | 32.2 |  |  |  |  |  | 10.33 ± 2.84 ×10^6 | 1.0 |  | 939.6 ± 5.4 | 921.2 ± 5 |  |  |  |  |  |  |
